Source: US11098061B2 (Celgene CAR LLC, priority 2013, dated 2021)
pEC50, pIC50: −log10 of the molar value.

Tests used:
MK2 [1] = biological target: T1, MK2 (Homo sapiens (Human), UniProt P49137); assay: MK2 target occupancy assay in Thp-1 cells with Covalent probe 2; assay type: cell-based; details: 1 μM test compound, 1 hour at 37° C.
Protocol: This experiment measured occupancy of the MK2 target by compounds according to the invention. Thp-1 cells (human acute monocytic leukemia) were grown in suspension in T225 flasks. Two days prior to assay, Thp-1 cells were spun down, counted and plated at 1×10^6 cells per well of a 12 well plate in compete media containing 10 ng/ml PMA (phorbol myristate acetate) to differentiate the cells. On day of assay, cells were washed with complete media, and a -test compound was added to cells at a concentration of 1 μM in complete media and incubated for 1 hour at 37° C. Cells were washed 1× with PBS and lysed on ice with BioRad Bioplex lysis buffer. The lysates were incubated with 1 μM biotinylated MK2 Covalent probe 2 at room temperature for 1 hour. 50 μg of total protein from lysates was loaded on gel and blots were probed for total MK2 with SC-100393 antibody and for probe with streptavidin-800. The amount of covalent probe signal divided by the amount of MK2 signal for samples with no test compound treatment represents the maximum probe signal (MPS). In samples treated with test compound prior to covalent probe, the ratio of probe signal to MK2 signal (the test probe signal, TPS) will be reduced by the degree of target occupancy by the test compound which blocks covalent probe binding. […] This ratio is then expressed as a percent occupancy.

[2] = biological target: p38a activated, mitogen-activated protein kinase-activated protein kinase 2 (MAPKAP-K2 or MK-2) enzyme (Homo sapiens (Human), UniProt P49137); assay: MK2 Omnia continuous-read kinase assay for compound potency; assay type: biochemical; details: [MK-2]=0.4 nM, [ATP]=1.0 mM, [ST3-Sox]=10 μM
Chain of p38a activated, mitogen-activated protein kinase-activated protein kinase 2 (MAPKAP-K2 or MK-2) enzyme (P49137 whole entry): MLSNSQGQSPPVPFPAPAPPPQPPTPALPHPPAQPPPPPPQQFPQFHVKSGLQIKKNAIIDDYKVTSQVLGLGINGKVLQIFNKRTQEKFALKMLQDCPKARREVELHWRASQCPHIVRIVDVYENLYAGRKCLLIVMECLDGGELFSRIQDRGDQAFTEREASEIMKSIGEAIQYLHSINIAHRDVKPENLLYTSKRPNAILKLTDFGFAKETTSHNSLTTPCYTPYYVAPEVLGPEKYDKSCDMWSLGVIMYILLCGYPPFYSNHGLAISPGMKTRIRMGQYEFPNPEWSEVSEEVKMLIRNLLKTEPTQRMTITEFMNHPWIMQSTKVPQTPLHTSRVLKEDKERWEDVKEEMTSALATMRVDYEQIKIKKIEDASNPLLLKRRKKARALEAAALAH
Outline: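 Continuous Omnia fluorescence read (λex360/λem485) every 71 s after starting with 0.4 nM MK-2, with 1.0 mM ATP (appKM 8-10 μM) and 10 μM ST3-Sox substrate.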

MK2 [3] = biological target: T1, MK2; assay: MK2 Thp-1 washout assay; assay type: cell-based; details: up to 6 hours after a 100 nM exposure (1 hour) and subsequent washout, Thp-1 cells
Protocol: Test compounds were assayed in Thp-1 human acute monocytic leukemia cells. Thp-1 were grown in suspension in T225 flasks. Two days prior to assay, Thp-1 cells were spun down, counted and plated at 1×10^6 cells per well of a 12 well plate in complete media containing 10 ng/ml PMA (phorbol myristate acetate) to differentiate the cells. […] Cells were thoroughly washed to remove the unbound test compound and placed back in the 37° C. tissue culture incubator for the washout period (0 h, 2 h, 6 h, or 16 h). After the washout, complete media containing 50 ng/ml LPS (lipopolysaccharide) was added for 15 minute stimulation, the cells were washed once with PBS, and protein lysates were prepared on ice with BioRad Bioplex lysis buffer. 20 μg total protein from each lysate was loaded on the gel and analyzed by SDS-PAGE. Western blots were probed for phosphorylation of the MK2 substrate Hsp27.

MK2 [4] = biological target: T1, MK2; assay: MK2 modification assessment by whole protein mass spectrometry; assay type: binding; details: intact MK2, 60 min, 10-fold excess of compound to protein
Outline: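 MK2 treated with compound is analysed intact by MALDI-TOF after C4 cleanup in sinapinic acid matrix. Percent modification is the centroid mass shift against control MK2 divided by compound mass.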

MK2 [5] = biological target: T1, MK2; assay: MK2 cellular assay (Hsp27 phosphorylation in Thp-1 cells); assay type: cell-based; details: differentiated Thp-1 cells, compound 1 hour, 50 ng/ml LPS 15 minutes, phosphorylation of Hsp27; read-out: MK2EC50
Outline: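 PMA-differentiated (10 ng/ml, 2 days) human Thp-1 monocytic cells given compound for 1 h, washed, then stimulated with 50 ng/ml LPS for 15 min. Hsp27 phosphorylation measured by western blot of lysates (20 μg protein); EC50 from dose-response inhibition.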

TNFα release [6] = assay: IV mouse PD experiment (TNFα release after LPS); assay type: in vivo; details: CD-1 male mice, less than 10 mg/kg IV, 1 hour prior to LPS
Protocol: CD-1 male mice, approximately 5 weeks old were acquired from Charles River Laboratories. Animals were housed in ventilated cages with a 12/12 light cycle and provided rodent chow and water ad libitum. Mice were acclimated at least 1 week prior to study initiation (approximately 6 weeks old). Five (5) mice per group were predosed with one of the following compounds: II-14, III-32, III-8, III-4, II-27 and III-40 (intravenously by lateral tail vein), 1 hour prior to LPS administration. LPS (E.Coli 055:B5 from Sigma, Cat #L2880) was diluted in 0.9% sterile saline (Webster Veterinary Supply, Cat #07-883-6734) to a final concentration of 30 μg/mL. Animals were administered 15 μg in 0.5 mL/mouse (approximately 0.5 mg/kg LPS) intraperitoneally. One hour post LPS administration, the mice were sacrificed via CO2 and whole blood was collected by cardiac puncture. Blood was placed in EDTA K2 tubes (Braintree Scientific, Cat #MT-1395), inverted 3 times and placed on wet ice until centrifugation at 4° C. Plasma was collected and stored on dry ice until stored at −80° C. until processing. TNFα levels were quantified using the “Mouse TNF-alpha Ultra-Sensitive Kit” from mesoscale.com (catalog number K152BHC-2) in conjunction with an MSD plate reader.

TNFα release [7] = assay: PO mouse PD experiment (TNFα release after LPS); assay type: in vivo; details: CD-1 male mice, 100 mg/kg PO, 1 hour prior to LPS, read-out: % Inhibition of TNFa

T1 sequence (P49137 whole entry): as above

Row | receptor occupancy at 1 µM (MK2 [1]) | pIC50 [2] | inhibition of p-hsp27 (phosphorylated hsp27) after washout (MK2 [3]) | MK2 Mass Mod (MK2 [4]) | pEC50 (MK2 [5]) | Structure (SMILES) | reduction in TNFα release compared to untreated control (TNFα release [6]) | inhibition in vivo at 100 mg/kg (TNFα release [7])
1 | 95% | > 7.00 | > 95% | E (mass modification of ≥70%) | > 7.00 | C=CC(=O)Nc1cc(-c2cc3c(cn2)CCc2c-3[nH]c3c2C(=O)NC2(CC2)C3)ccc1OCCOC [II-11, N-(2-(2-methoxyethoxy)-5-(7′-oxo-5′,6′,7′,8′8′,1′,11′-hexahydrospiro[cyclopropane-1,9′-pyrido[3′,4′:4,5]pyrrolo[2,3-f]isoquinolin]-2′-yl)phenyl)acrylamide] |  | 
2 | 92% | 6.30 to 7.00 |  | E (mass modification of ≥70%) | > 7.00 | C=CC(=O)Nc1cc(-c2ccc3c(ccc4sc5c(c43)NC[C@@H](C)NC5=O)n2)ccc1OCCOC [III-8, (R)—N-(2-(2-methoxyethoxy)-5-(10-methyl-8-oxo-9,10,11,12-tetrahydro-8H-[1,4]diazepino[5′,6′:4,5]thieno[3,2-f]quinolin-3-yl)phenyl)acrylamide] | greater than 90% | 21 to 80%
